We go through one compound from article PMC5666006, “Combating virulence of Gram-negative bacilli by OmpA inhibition” (Scientific Reports, 2017).

One series has as its system C57BL/6 female mice. Nature of the series: AOA-2 in vivo toxicity (Reed and Munch method). Further details: species or system mouse. The method, then: (§1) Animals were housed in regulation cages with food and water ad libitum. This study was carried out in strict accordance with the recommendations in the Guide for the Care and Use of Laboratory Animals[41]. The protocol was approved by the Committee on the Ethics of Animal Experiments of the University Hospital of Virgen del Rocío, Seville (2012PI/238). All surgery was performed under sodium thiopental anaesthesia, and all efforts were made to minimize suffering.
(§2) The Reed and Munch method was used[42]. […] LD50 value was determined using the Probit method.
(§3) 20, 40, 80 or 160 mg/kg. Mice survival was monitored for a one week and lethal doses (LD) 0,
(§4) 50 and 100 were calculated.

A short description of series [1]: AOA-2 in vivo toxicity (Reed and Munch method). On the set-up: species or system mouse. Conditions: female, C57BL/6, mouse, in vivo, ip, mice, single i.p. dose, groups of six, survival one week. The method, then:
as §1, §2, §3, §4

Series [2] relates to JPAB01: ompA-deficient ATCC 17978 strain. Nature of the series: Bacterial cytotoxicity on A549 cells, MTT assay. In kind it is cell-based, A. baumannii. Conditions: JPAB01, 0.5 mg/mL, 48 h. The method, then: (§5) Bacterial cytotoxicity. […] Prior the evaluation of bacterial cytotoxicity, we firstly removed viable bacteria from A549 cells cultures and washed A549 cells five times with pre-warmed PBS. Then, cellular viability was assessed as indicated above.
Figure S5. Cell death induced by A. baumannii ATCC 17978 and JPAB01 strains. A549 cells were infected for 48 h with 10^8 CFU/mL of ATCC 17978 and JPAB01 strains treated with AOA-2 (0 or 0.5 mg/mL). Bacterial cytotoxicity was assessed by monitoring the mitochondrial reduction activity using the MTT assay. Representative results of two independent experiments are shown; data are means ± SEM. JPAB01: ompA-deficient ATCC 17978 strain. *P<0.05: between infected and non-infected cells, #P<0.05: between untreated and treated groups. […]
(In general: Formazan colour is commonly taken as a measure of viable cells.)

Series [3] deals with P. aeruginosa PaO1. Nature of the series: Adhesion of bacteria to A549 cells. Conditions: 0.25 or 0.5 mg/mL, 2 h. In kind it is cell-based. The method, then: (§6) Subsequently, infected A549 cells were washed five times with pre-warmed PBS and lysed with 0.5% Triton X-100. Diluted lysates were plated onto blood agar (Blood-Agar Columbia, Becton Dickinson Microbiology Systems, USA) and incubated at 37 °C for 24 h for enumeration of developed colonies and then the determination of the number of bacteria that attached to A549 cells.

For series [4], the system named is E. coli ATCC 25922. The series is described as follows: Adhesion of bacteria to A549 cells. In kind it is cell-based. Conditions: 0.25 or 0.5 mg/mL, 2 h. The method, then: as §6
Series [5] has as its system E. coli ATCC 25922. Nature of the series: Bacterial cytotoxicity on A549 cells, MTT assay. In kind it is cell-based. Conditions: E. coli ATCC 25922 pretreated with 0.25 or 0.5 mg/mL, 24 h. The procedure:
as §5

Series [6] concerns A. baumannii ATCC 17978. Nature of the series: Bacterial cytotoxicity on A549 cells, MTT assay. In kind it is cell-based. Conditions: A. baumannii ATCC 17978 pretreated with 0.25 or 0.5 mg/mL, 24 h. The procedure: as §5
A further series has as its target T1, E. coli OmpA (Escherichia coli, UniProt P0A910).
T1 construct: A recombinant 37 kDa polypeptide fragment containing the transmembrane and periplasmatic domains of the E. coli OmpA protein; purchased NovoPro (China)
The series is described as follows: NMR detection of binding (1H, STD, PFG diffusion). Conditions: AOA-2 750 μM, OmpA 8 μM, 1 mM Triton X-100, pH 7.3, 25 °C. The procedure: A recombinant 37 kDa polypeptide fragment containing the transmembrane and periplasmatic domains of the E. coli OmpA protein was purchased from NovoPro (China). OmpA samples contained Triton X-100 to mimic the membrane environment.
All NMR experiments were recorded at 25 °C on a Bruker Avance 800 MHz spectrometer equipped with a cryoprobe.
Saturation transfer difference[38] (STD) experiments were obtained using a pseudo-2D pulse sequence for the interleaved acquisition of on-resonance and off-resonance spectra. Total saturation time was 3 seconds. Suppression of the residual water signal was achieved by excitation sculpting.
Diffusion NMR experiments were performed using the LED pulse sequence[40] with gradient lengths of 3 ms and a diffusion delay of 110 ms. The total inter-scan delay was 4.5 s.

The nature of series [7]: Peptide toxicity, MTT assay. In kind it is cell-based, human. Conditions: human, A549 cells. The method, then: Human type II pneumocyte cell line A549 derived from a human lung carcinoma were obtained from American Type Culture Collection (LGC, UK) and were grown in DMEM medium (Invitrogen, Spain) supplemented with 10% heat-inactivated fetal bovine serum, vancomycin (50 μg/mL), gentamicin (20 μg/mL), amphotericin B (0.25 μg/mL) (Invitrogen, Spain) and 1% HEPES (Invitrogen, Spain) in a humidified incubator, 5% CO2 at 37 °C. A549 cells were routinely passaged every 3–4 days. The cells were seeded 24 h in 96-well plates for cellular viability assay, and in 24 well plates for adhesion and immnunofluorescence assays.
Peptide toxicity. […] Prior the evaluation of the peptides cytotoxicity, A549 cells were washed three times with prewarmed PBS. Then, peptides cytotoxicity was initially assessed quantitatively by monitoring the mitochondrial reduction activity using the MTT assay as described previously. The percentage of […] was calculated from the optical density (OD) as follow: [(OD of treated cells / mean OD of non-treated cell) × 100].
Table S2. Percentages of A549 cellular viability assessed through mitochondrial reduction
activity (MTT assay) in presence of anti-OmpA hexapeptides and control peptides (SXV4 and
COL). COL: colistin. ND: not determined.
Peptides 0.25 mg/mL 0.5 mg/mL 1 mg/mL 5 mg/mL

Series [8] deals with P. aeruginosa PaO1. In kind it is cell-based. The procedure:
(§7) In the initial screening, the bactericidal activity of the synthetic peptides and their toxicity on human lung epithelial cells (A549) were evaluated.
(§8) Table S1. MICs of the six hexapeptides for A. baumannii and E. coli.
(§9) Peptides P. aeruginosa PaO1
(§10) MIC: minimal inhibitory concentration

The test system of series [9] is E. coli ATCC 25922. In kind it is cell-based. The method, then: as §7, §8, §9, §10
Series [10] concerns A. baumannii ATCC 17978. In kind it is cell-based. The procedure: as §7, §8, §9, §10
A short description of series [11]: AOA-2 pharmacokinetics in serum. Conditions: mouse, in vivo, ip, 10 mg/kg.
Series [12] relates to P. aeruginosa PaO1. Nature of the series: Time kill curves. In kind it is cell-based. To be noted: 0.25–1 mg/mL. The source says:
(§11) Figure S4. Time kill curves of A. baumannii ATCC 17978, P. aeruginosa PaO1, and E. coli
(§12) (also on this page, place not known: Bacterial concentration ( Log CFU/mL) Bacterial concentration ( Log CFU/mL) Bacterial concentration ( Log CFU/mL))

The subject of series [13] is E. coli ATCC 25922. The series is described as follows: Time kill curves. In kind it is cell-based. Conditions: 0.25–1 mg/mL.
Description: as §11, §12

Series [14] concerns A. baumannii ATCC 17978. The series is described as follows: Time kill curves. In kind it is cell-based. To be noted: 0.25–1 mg/mL.
Description: as §11, §12

Where a SMILES comes first, the peptide text is derived from it. [ ]: non-standard residue; d: D form.

T1 sequence (P0A910 22-346): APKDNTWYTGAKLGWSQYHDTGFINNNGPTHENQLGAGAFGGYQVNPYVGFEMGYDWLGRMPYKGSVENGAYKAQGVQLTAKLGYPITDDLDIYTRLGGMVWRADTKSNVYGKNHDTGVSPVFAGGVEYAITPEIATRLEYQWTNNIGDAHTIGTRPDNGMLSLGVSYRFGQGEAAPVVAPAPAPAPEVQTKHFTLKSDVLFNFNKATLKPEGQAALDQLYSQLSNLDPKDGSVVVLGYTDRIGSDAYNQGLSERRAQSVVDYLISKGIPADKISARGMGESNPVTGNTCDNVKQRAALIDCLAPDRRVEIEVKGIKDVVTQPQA

For the compound `N=C(N)NCCC[C@@H]1NC(=O)[C@H]2CCCN2C(=O)[C@H](Cc2c[nH]c3ccccc23)NC(=O)[C@H](CCCNC(=N)N)NC(=O)[C@H]2CCCN2C(=O)[C@H](Cc2c[nH]c3ccccc23)NC1=O` [AOA-2] (cyclo(RW[dP]RW[dP])), the “dose without any evidence of toxicity” value in the series on C57BL/6 female mice (i.p.) is given as not above 40 mg/kg. Moreover, the LD100 in the series on C57BL/6 female mice (single i.p. dose, groups of six, survival one week) is on record as 160 mg/kg. Further, in series [1] (Probit method), the LD50 (commonly the dose at which mortality reaches 50%) at 168 h was 85 mg/kg. In addition, in series [1] (read-out: LD0 (maximum tolerated dose)), the MTD at 168 h turned out to be 40 mg/kg. In addition, the “A549 cell death induced by ompA-deficient A. baumannii (in words)” value in series [2] is recorded as “no effect on cell death”. Further, the “adherence of P. aeruginosa to A549 cells (in words)” value in the series on P. aeruginosa PaO1 [3] is recorded as “significant reduction in adherence”. In addition, the “adherence of E. coli to A549 cells (in words)” value in the series with E. coli ATCC 25922 [4] is listed as “significant reduction in adherence”. Moreover, the entries for the “A549 cell death induced by bacteria (in words)” value in the series on E. coli ATCC 25922 [5] and in the series on A. baumannii ATCC 17978 [6] were “failure” and “prevented cell death”, respectively. Besides, the “binding to OmpA by NMR (in words)” value at E. coli OmpA is “interacting with OmpA”. In series [7], the viability (usually a per cent measure of how many cells are alive, often set against a control) at 48 h, 250 µg/mL was 98.09 ± 0.27%. Also, in series [7], the viability at 48 h, 500 µg/mL was determined as 98.33 ± 0.4%. In [7], this compound displayed a viability at 48 h, 1000 µg/mL of 98.48 ± 0.55%. Besides, the minimum inhibitory concentration (MIC) with P. aeruginosa PaO1 [8], in the series on E. coli ATCC 25922 [9] and with A. baumannii ATCC 17978 [10] was more than 500 µg/mL each time. In [11], the half-life – broadly, how long it takes for the measured level to halve – came to 56 min. Besides, the “bacteriostatic activity (in words)” value is on record as “relevant bacteriostatic activity” in the series on P. aeruginosa PaO1 [12], “intermediate behaviour” in the series with E. coli ATCC 25922 [13] and “poor bacteriostatic activity” in the series with A. baumannii ATCC 17978 [14].
